{
  "source": "patent US20050032766A1",
  "about": "“Use of estrogenic compounds as anti-fungal agents” (priority 2003, published 2005)",
  "type_in_all_cases": "cell-based",
  "key": {"C. albicans [1]": {"test_system": "C. albicans", "experiment": "Growth inhibition of C. albicans strains by 2ME2, colony counts at 5 and 12 hours (Example 1)", "conditions": "for Number of Treated Colonies at 5 hrs / Number of Treated Colonies at 12 hrs / Percentage of Inhibition at 12 hrs: 3 μM 2ME2", "experimental": "(§1) The ability of 3 μM 2ME2 to inhibit the growth of ten different strains of C. albicans was investigated. Nine of these strains were clinically isolated and maintained by interval of subculture with Sabouraouds dextrose agar and storage at 4° C.; the other strain was purchased from ATCC. Yeast cells were cultured with nitrogen broth devoid of mammalian steroid hormones in the presence and absence of 2ME2. At 5 and 12 hours after the addition of 2ME2, a small volume of control and treated cultures was drawn and plated on Sabouraouds dextrose agar plates. The plates were placed at 37° C. and the colonies counted 24 hours later. Table I illustrates that micromolar concentrations 2ME2 are able to suppress the growth of 9/10 strains of C. albicans tested here."}, "C. albicans [2]": {"test_system": "C. albicans", "experiment": "Repeat of the growth inhibition test, colony counts after 5 hours of culture (Example 2)", "experimental": "as §1\nThe experiment described in Example 1 was repeated with 4 of the above strains and 3 newly isolated C. albicans trains. The following counts were taken from yeast cultures grown for 5 hours in the nitrogen base media in the presence and absence of micromolar concentrations 2ME2."}, "C. albicans [3]": {"test_system": "C. albicans", "experiment": "C. albicans colony counts with 17β-estradiol in presence and absence of 2ME2 (Example 3)", "conditions": "5 hours; for Number of Colonies treated with estradiol and 2ME2: 1 μM 2ME2 with 1 nM 17β-estradiol; for Percentage of Inhibition: 1 μM 2ME2 with 1 nM 17β-estradiol vs estradiol alone; for Number of Colonies treated with estradiol: 1 nM 17β-estradiol alone", "experimental": "as §1\nIn a separate experiment, 1 nM 17β-estradiol was added to the cultures of C. albicans cells in the presence and absence of 1 μM 2ME2 and the number of colonies of yeast cells cultured for 5 hours with the above steroids were counted as previously described."}, "[4]": {"conditions": "strain 2, micromolar concentrations 2ME2"}, "[5]": {"conditions": "strain 5, micromolar concentrations 2ME2"}, "[6]": {"conditions": "strain 8, micromolar concentrations 2ME2"}, "[7]": {"conditions": "strain 10, micromolar concentrations 2ME2"}, "[8]": {"conditions": "strain 11, micromolar concentrations 2ME2"}, "[9]": {"conditions": "strain 12, micromolar concentrations 2ME2"}, "[10]": {"conditions": "strain ATCC, micromolar concentrations 2ME2"}},
  "data": [
    {"smiles": "COc1cc2c(cc1O)CC[C@@H]1[C@@H]2CC[C@]2(C)[C@@H](O)CC[C@@H]12", "note": "[2ME2, 2-Methoxyestradiol]", "values": [
      {"measurement": "strains of C. albicans whose growth is suppressed", "setting": "C. albicans [1]; micromolar concentrations 2ME2, ten strains tested", "result": "9/10"},
      {"measurement": "Number of Treated Colonies at 5 hrs", "setting": "C. albicans [1]; strain 1", "result": 16},
      {"measurement": "Number of Treated Colonies at 12 hrs", "setting": "C. albicans [1]; strain 1", "result": 50},
      {"measurement": "Percentage of Inhibition at 12 hrs", "setting": "C. albicans [1]; strain 1", "result": 57, "unit": "%"},
      {"measurement": "Number of Treated Colonies at 5 hrs", "setting": "C. albicans [1]; strain 2", "result": 51},
      {"measurement": "Number of Treated Colonies at 12 hrs", "setting": "C. albicans [1]; strain 2", "result": ">400"},
      {"measurement": "Number of Treated Colonies at 5 hrs", "setting": "C. albicans [1]; strain 3", "result": 14},
      {"measurement": "Number of Treated Colonies at 12 hrs", "setting": "C. albicans [1]; strain 3", "result": 86},
      {"measurement": "Percentage of Inhibition at 12 hrs", "setting": "C. albicans [1]; strain 3", "result": ">78", "unit": "%"},
      {"measurement": "Number of Treated Colonies at 5 hrs", "setting": "C. albicans [1]; strain 4", "result": 17},
      {"measurement": "Number of Treated Colonies at 12 hrs", "setting": "C. albicans [1]; strain 4", "result": 113},
      {"measurement": "Percentage of Inhibition at 12 hrs", "setting": "C. albicans [1]; strain 4", "result": ">72", "unit": "%"},
      {"measurement": "Number of Treated Colonies at 5 hrs", "setting": "C. albicans [1]; strain 5", "result": 14},
      {"measurement": "Number of Treated Colonies at 12 hrs", "setting": "C. albicans [1]; strain 5", "result": 85},
      {"measurement": "Percentage of Inhibition at 12 hrs", "setting": "C. albicans [1]; strain 5", "result": ">79", "unit": "%"},
      {"measurement": "Number of Treated Colonies at 5 hrs", "setting": "C. albicans [1]; strain 6", "result": 32},
      {"measurement": "Number of Treated Colonies at 12 hrs", "setting": "C. albicans [1]; strain 6", "result": 131},
      {"measurement": "Percentage of Inhibition at 12 hrs", "setting": "C. albicans [1]; strain 6", "result": ">67", "unit": "%"},
      {"measurement": "Number of Treated Colonies at 5 hrs", "setting": "C. albicans [1]; strain 7", "result": 13},
      {"measurement": "Number of Treated Colonies at 12 hrs", "setting": "C. albicans [1]; strain 7", "result": 148},
      {"measurement": "Percentage of Inhibition at 12 hrs", "setting": "C. albicans [1]; strain 7", "result": ">63", "unit": "%"},
      {"measurement": "Number of Treated Colonies at 5 hrs", "setting": "C. albicans [1]; strain 8", "result": 14},
      {"measurement": "Number of Treated Colonies at 12 hrs", "setting": "C. albicans [1]; strain 8", "result": 98},
      {"measurement": "Percentage of Inhibition at 12 hrs", "setting": "C. albicans [1]; strain 8", "result": ">75", "unit": "%"},
      {"measurement": "Number of Treated Colonies at 5 hrs", "setting": "C. albicans [1]; strain 9", "result": 15},
      {"measurement": "Number of Treated Colonies at 12 hrs", "setting": "C. albicans [1]; strain 9", "result": 90},
      {"measurement": "Percentage of Inhibition at 12 hrs", "setting": "C. albicans [1]; strain 9", "result": ">77", "unit": "%"},
      {"measurement": "Number of Treated Colonies at 5 hrs", "setting": "C. albicans [1]; strain ATCC", "result": 15},
      {"measurement": "Number of Treated Colonies at 12 hrs", "setting": "C. albicans [1]; strain ATCC", "result": 67},
      {"measurement": "Percentage of Inhibition at 12 hrs", "setting": "C. albicans [1]; strain ATCC", "result": 70, "unit": "%"},
      {"measurement": "Percentage of Inhibition", "setting": "C. albicans [2]; [4]", "result": 70, "unit": "%"},
      {"measurement": "Treated Colonies", "setting": "C. albicans [2]; [4]", "result": "26 ± 7"},
      {"measurement": "Percentage of Inhibition", "setting": "C. albicans [2]; [5]", "result": 41, "unit": "%"},
      {"measurement": "Treated Colonies", "setting": "C. albicans [2]; [5]", "result": "58 ± 7"},
      {"measurement": "Percentage of Inhibition", "setting": "C. albicans [2]; [6]", "result": 50, "unit": "%"},
      {"measurement": "Treated Colonies", "setting": "C. albicans [2]; [6]", "result": "59 ± 7"},
      {"measurement": "Percentage of Inhibition", "setting": "C. albicans [2]; [7]", "result": 0, "unit": "%"},
      {"measurement": "Treated Colonies", "setting": "C. albicans [2]; [7]", "result": "51 ± 19"},
      {"measurement": "Percentage of Inhibition", "setting": "C. albicans [2]; [8]", "result": 14, "unit": "%"},
      {"measurement": "Treated Colonies", "setting": "C. albicans [2]; [8]", "result": "74 ± 16"},
      {"measurement": "Percentage of Inhibition", "setting": "C. albicans [2]; [9]", "result": 50, "unit": "%"},
      {"measurement": "Treated Colonies", "setting": "C. albicans [2]; [9]", "result": "77 ± 12"},
      {"measurement": "Percentage of Inhibition", "setting": "C. albicans [2]; [10]", "result": 44, "unit": "%"},
      {"measurement": "Treated Colonies", "setting": "C. albicans [2]; [10]", "result": "36 ± 6"},
      {"measurement": "Number of Colonies treated with estradiol and 2ME2", "setting": "C. albicans [3]; strain 2", "result": "64 ± 2"},
      {"measurement": "Percentage of Inhibition", "setting": "C. albicans [3]; strain 5", "result": 43, "unit": "%"},
      {"measurement": "Number of Colonies treated with estradiol and 2ME2", "setting": "C. albicans [3]; strain 5", "result": "39 ± 4"},
      {"measurement": "Percentage of Inhibition", "setting": "C. albicans [3]; strain 8", "result": 48, "unit": "%"},
      {"measurement": "Number of Colonies treated with estradiol and 2ME2", "setting": "C. albicans [3]; strain 8", "result": "25 ± 3"},
      {"measurement": "Percentage of Inhibition", "setting": "C. albicans [3]; strain 10", "result": 56, "unit": "%"},
      {"measurement": "Number of Colonies treated with estradiol and 2ME2", "setting": "C. albicans [3]; strain 10", "result": "23 ± 5"},
      {"measurement": "Percentage of Inhibition", "setting": "C. albicans [3]; strain 11", "result": 31, "unit": "%"},
      {"measurement": "Number of Colonies treated with estradiol and 2ME2", "setting": "C. albicans [3]; strain 11", "result": "55 ± 6"},
      {"measurement": "Percentage of Inhibition", "setting": "C. albicans [3]; strain 12", "result": 53, "unit": "%"},
      {"measurement": "Number of Colonies treated with estradiol and 2ME2", "setting": "C. albicans [3]; strain 12", "result": "56 ± 1"},
      {"measurement": "Percentage of Inhibition", "setting": "C. albicans [3]; strain ATCC", "result": 55, "unit": "%"},
      {"measurement": "Number of Colonies treated with estradiol and 2ME2", "setting": "C. albicans [3]; strain ATCC", "result": "28 ± 12"}
    ]},
    {"smiles": "C[C@]12CC[C@@H]3c4ccc(O)cc4CC[C@H]3[C@@H]1CC[C@@H]2O", "note": "[estradiol, 17β-estradiol, reference compound]", "values": [
      {"measurement": "Number of Colonies treated with estradiol", "setting": "C. albicans [3]; strain 2", "result": "58 ± 5"},
      {"measurement": "Number of Colonies treated with estradiol", "setting": "C. albicans [3]; strain 5", "result": "69 ± 13"},
      {"measurement": "Number of Colonies treated with estradiol", "setting": "C. albicans [3]; strain 8", "result": "48 ± 7"},
      {"measurement": "Number of Colonies treated with estradiol", "setting": "C. albicans [3]; strain 10", "result": "52 ± 2"},
      {"measurement": "Number of Colonies treated with estradiol", "setting": "C. albicans [3]; strain 11", "result": "80 ± 1"},
      {"measurement": "Number of Colonies treated with estradiol", "setting": "C. albicans [3]; strain 12", "result": 120},
      {"measurement": "Number of Colonies treated with estradiol", "setting": "C. albicans [3]; strain ATCC", "result": "63 ± 8"}
    ]}
  ]
}
